Results on eleven compounds are retold here after patent US20260184710A1, “CASITAS B-LINEAGE LYMPHOMA PROTOONCOGENE B (CBL-B) DEGRADING COMPOUNDS AND ASSOCIATED METHODS OF USE” (Arvinas Operations, Inc., priority 2022, published 2026).

In experiment [1] the target is T1, Cbl-b (Homo sapiens, UniProt Q13191).
T1 construct: Cbl-b-HiBit KI Jurkat Cells were purchased from Promega; host or cells: Cbl-b-HiBiT knock-in Jurkat cells
Put plainly: Cbl-b Degradation Method B (Nano-Glo HiBiT lytic detection). The format is cell-based. Conditions: Cbl-b-HiBit KI Jurkat Cells, incubated at least 6-24 hours; for DC50: half maximal degradation, read-out: Cbl-b Degredation Method B IC50; for Dmax: maximum degradation observed, read-out: Cbl-b Degredation Method B Dmax (%). An outline of the steps: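 An 11-point, 3-fold compound dilution was applied for 6-24 hours to Jurkat cells carrying HiBiT-tagged endogenous Cbl-b. Lytic HiBiT luminescence quantified residual protein. Outputs are DC50 and Dmax relative to DMSO control.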
A general note: HiBiT is a short tag that completes a luciferase, so light tracks the accessible tagged protein.

The target of experiment [2] is T1, Cbl-b. The experiment can be described thus: Cbl-b Degradation Method A (FACS, anti-Cbl-b antibody staining). In kind it is cell-based. Conditions: Cbl-b-HiBit KI Jurkat Cells, incubated at least 20 hours; for DC50: half maximal degradation, read-out: Cbl-b Degredation Method A IC50; for Dmax: Jurkat, maximum degradation observed, read-out: Cbl-b Degredation Method A Dmax (%). An outline of the steps: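 Readout is flow cytometry of fixed, permeabilized cells immunostained for Cbl-b (primary 1:200, AF488 secondary). Cells were Cbl-b-HiBit knock-in Jurkat, exposed to compound ≥20 h at 37 °C; half-maximal degradation concentration (DC50) and maximal degradation (Dmax) calculated relative to control.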

T1 sequence (Q13191 whole entry): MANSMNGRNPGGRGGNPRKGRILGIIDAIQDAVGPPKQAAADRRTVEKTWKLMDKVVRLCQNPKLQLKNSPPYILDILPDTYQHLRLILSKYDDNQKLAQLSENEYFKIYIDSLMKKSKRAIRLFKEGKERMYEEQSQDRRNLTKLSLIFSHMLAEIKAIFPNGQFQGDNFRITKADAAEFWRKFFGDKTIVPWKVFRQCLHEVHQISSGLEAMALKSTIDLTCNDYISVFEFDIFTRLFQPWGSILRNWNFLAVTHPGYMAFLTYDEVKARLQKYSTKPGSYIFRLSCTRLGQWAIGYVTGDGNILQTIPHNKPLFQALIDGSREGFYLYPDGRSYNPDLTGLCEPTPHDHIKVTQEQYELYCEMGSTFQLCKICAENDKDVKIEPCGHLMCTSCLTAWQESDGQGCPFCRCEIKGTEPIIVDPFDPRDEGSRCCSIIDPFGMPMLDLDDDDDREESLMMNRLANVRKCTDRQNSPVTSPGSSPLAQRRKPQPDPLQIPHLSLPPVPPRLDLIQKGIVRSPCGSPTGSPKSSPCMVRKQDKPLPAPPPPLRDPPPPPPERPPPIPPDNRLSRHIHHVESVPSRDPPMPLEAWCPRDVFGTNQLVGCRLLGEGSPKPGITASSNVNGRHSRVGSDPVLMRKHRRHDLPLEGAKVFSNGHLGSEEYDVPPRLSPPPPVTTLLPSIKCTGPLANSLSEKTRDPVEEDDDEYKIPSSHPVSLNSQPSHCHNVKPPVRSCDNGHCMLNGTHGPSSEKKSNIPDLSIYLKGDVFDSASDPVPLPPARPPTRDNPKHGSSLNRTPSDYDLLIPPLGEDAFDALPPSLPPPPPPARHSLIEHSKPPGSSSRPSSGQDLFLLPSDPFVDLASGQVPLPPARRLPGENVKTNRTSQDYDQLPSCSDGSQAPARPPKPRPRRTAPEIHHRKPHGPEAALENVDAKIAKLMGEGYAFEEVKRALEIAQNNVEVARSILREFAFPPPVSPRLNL

Take `Cn1cnnc1C[C@]1(c2cccc(N3Cc4c(cc(N5CC6(CCN(CC7(F)CCN(c8ccc9c(c8)C(=O)N(C8CCC(=O)NC8=O)C9=O)CC7)CC6)C5)cc4C(F)(F)F)C3=O)c2)C[C@H](C#N)C1` (some centres unmarked) [Example 172, (1r,3r)-3-(3-{6-[7-({1-[2-(2,6-dioxopiperidin-3-yl)-1,3-dioxo-2,3-dihydro-1H-isoindol-5-yl]-4-fluoropiperidin-4-yl}methyl)-2,7-diazaspiro[3.5]nonan-2-yl]-1-oxo-4-(trifluoromethyl)-2,3-dihydro-1H-isoindol-2-yl}phenyl)-3-[(4-methyl-4H-1,2,4-triazol-3-yl)methyl]cyclobutane-1-carbonitrile]: the DC50 on Cbl-b [1] and at Cbl-b [2] was 5 to 50 nM throughout. Also, the Dmax on Cbl-b [1] and at Cbl-b [2] was 35 to 70% in each case.

As to `Cn1cnnc1C[C@]1(c2cccc(N3Cc4c(cc(N5CC6(CCN(CC7CCN(c8ccc9c(c8Cl)CN(C8CCC(=O)NC8=O)C9=O)CC7)CC6)C5)cc4C(F)(F)F)C3=O)c2)C[C@H](C#N)C1` (some centres unmarked) [Example 173, (1r,3r)-3-(3-{6-[7-({1-[4-chloro-2-(2,6-dioxopiperidin-3-yl)-1-oxo-2,3-dihydro-1H-isoindol-5-yl]piperidin-4-yl}methyl)-2,7-diazaspiro[3.5]nonan-2-yl]-1-oxo-4-(trifluoromethyl)-2,3-dihydro-1H-isoindol-2-yl}phenyl)-3-[(4-methyl-4H-1,2,4-triazol-3-yl)methyl]cyclobutane-1-carbonitrile], the DC50 is less than 5 nM at Cbl-b [1] and 5 to 50 nM at Cbl-b [2]. Besides, the Dmax – broadly, the largest share of the target that was removed – is 35 to 70% on Cbl-b [1] and more than 70% at Cbl-b [2].

`COc1c(N2CCC(CN3CCC4(CC3)CN(c3cc5c(c(C(F)(F)F)c3)CN(c3cccc([C@]6(Cc7nncn7C)C[C@@H](C#N)C6)c3)C5=O)C4)CC2)ccc2c1CN(C1CCC(=O)NC1=O)C2=O` (some centres unmarked) [Example 174, (1r,3r)-3-(3-{6-[7-({1-[2-(2,6-dioxopiperidin-3-yl)-4-methoxy-1-oxo-2,3-dihydro-1H-isoindol-5-yl]piperidin-4-yl}methyl)-2,7-diazaspiro[3.5]nonan-2-yl]-1-oxo-4-(trifluoromethyl)-2,3-dihydro-1H-isoindol-2-yl}phenyl)-3-[(4-methyl-4H-1,2,4-triazol-3-yl)methyl]cyclobutane-1-carbonitrile]: the DC50 at Cbl-b [1] was less than 5 nM; at Cbl-b [2], 5 to 50 nM. Further, the Dmax on Cbl-b [1] and at Cbl-b [2] was more than 70% in each case.

On to `CC1c2nc(N3CCC(O[C@H]4CC[C@H](CN5CCC6(CC5)CN(c5cc7c(c(C(F)(F)F)c5)CN(c5cccc([C@]8(Cc9nncn9C)C[C@@H](C#N)C8)c5)C7=O)C6)CC4)CC3)ccc2C(=O)N1C1CCC(=O)NC1=O` (some centres unmarked) [Example 175, (1r,3r)-3-[(4-methyl-4H-1,2,4-triazol-3-yl)methyl]-3-{3-[1-oxo-6-(7-{[(1r,4r)-4-({1-[6-(2,6-dioxopiperidin-3-yl)-7-methyl-5-oxo-5H,6H,7H-pyrrolo[3,4-b]pyridin-2-yl]piperidin-4-yl}oxy)cyclohexyl]methyl}-2,7-diazaspiro[3.5]nonan-2-yl)-4-(trifluoromethyl)-2,3-dihydro-1H-isoindol-2-yl]phenyl}cyclobutane-1-carbonitrile], for which the DC50 at Cbl-b [1] was less than 5 nM; at Cbl-b [2] it was 5 to 50 nM. For the same compound, the Dmax is 35 to 70% on Cbl-b [1] and more than 70% at Cbl-b [2].

As to `Cc1cc(N2CCC(CN3CCC4(C3)CN(c3cc5c(c(C(F)(F)F)c3)CN(c3cccc([C@]6(Cc7nncn7C)C[C@@H](C#N)C6)c3)C5=O)C4)CC2)c(F)c2c1C(=O)N(C1CCC(=O)NC1=O)C2` (some centres unmarked) [Example 176, (1r,3r)-3-(3-{6-[6-({1-[2-(2,6-dioxopiperidin-3-yl)-4-fluoro-7-methyl-1-oxo-2,3-dihydro-1H-isoindol-5-yl]piperidin-4-yl}methyl)-2,6-diazaspiro[3.4]octan-2-yl]-1-oxo-4-(trifluoromethyl)-2,3-dihydro-1H-isoindol-2-yl}phenyl)-3-[(4-methyl-4H-1,2,4-triazol-3-yl)methyl]cyclobutane-1-carbonitrile], at Cbl-b [1], the DC50 is less than 5 nM and the Dmax lay in the range of 35 to 70%. At Cbl-b [2], the DC50 was in the range of 5 to 50 nM and the Dmax is 35 to 70%.

Regarding `Cc1cc(N2CCC(CN3CCC4(CCN(c5cc6c(c(C(F)(F)F)c5)CN(c5cccc([C@]7(Cc8nncn8C)C[C@@H](C#N)C7)c5)C6=O)C4)C3)CC2)c(F)c2c1C(=O)N(C1CCC(=O)NC1=O)C2` (some centres unmarked) [Example 177, (1r,3r)-3-(3-{6-[7-({1-[2-(2,6-dioxopiperidin-3-yl)-4-fluoro-7-methyl-1-oxo-2,3-dihydro-1H-isoindol-5-yl]piperidin-4-yl}methyl)-2,7-diazaspiro[4.4]nonan-2-yl]-1-oxo-4-(trifluoromethyl)-2,3-dihydro-1H-isoindol-2-yl}phenyl)-3-[(4-methyl-4H-1,2,4-triazol-3-yl)methyl]cyclobutane-1-carbonitrile], on Cbl-b [1], the DC50 was less than 5 nM and the maximal degradation (Dmax) is 35 to 70%. On Cbl-b [2], the DC50 lay within 5 to 50 nM and the Dmax lay within 35 to 70%.

Regarding `CC1c2nc(N3CCC(O[C@H]4CC[C@H](CN5CCC6(C5)CN(c5cc7c(c(C(F)(F)F)c5)CN(c5cccc([C@]8(Cc9nncn9C)C[C@@H](C#N)C8)c5)C7=O)C6)CC4)CC3)ccc2C(=O)N1C1CCC(=O)NC1=O` (some centres unmarked) [Example 178, (1r,3r)-3-[(4-methyl-4H-1,2,4-triazol-3-yl)methyl]-3-{3-[1-oxo-6-(6-{[(1r,4r)-4-({1-[6-(2,6-dioxopiperidin-3-yl)-7-methyl-5-oxo-5H,6H,7H-pyrrolo[3,4-b]pyridin-2-yl]piperidin-4-yl}oxy)cyclohexyl]methyl}-2,6-diazaspiro[3.4]octan-2-yl)-4-(trifluoromethyl)-2,3-dihydro-1H-isoindol-2-yl]phenyl}cyclobutane-1-carbonitrile], at Cbl-b [1], the DC50 was less than 5 nM and the Dmax is 35 to 70%. On Cbl-b [2], the DC50 was in the range of 5 to 50 nM and the Dmax lay in the range of 35 to 70%.

As to `CC1c2nc(N3CCC(O[C@H]4CC[C@H](CN5CCC6(CCN(c7cc8c(c(C(F)(F)F)c7)CN(c7cccc([C@]9(Cc%10nncn%10C)C[C@@H](C#N)C9)c7)C8=O)C6)C5)CC4)CC3)ccc2C(=O)N1C1CCC(=O)NC1=O` (some centres unmarked) [Example 179, (1r,3r)-3-[(4-methyl-4H-1,2,4-triazol-3-yl)methyl]-3-{3-[1-oxo-6-(7-{[(1r,4r)-4-({1-[6-(2,6-dioxopiperidin-3-yl)-7-methyl-5-oxo-5H,6H,7H-pyrrolo[3,4-b]pyridin-2-yl]piperidin-4-yl}oxy)cyclohexyl]methyl}-2,7-diazaspiro[4.4]nonan-2-yl)-4-(trifluoromethyl)-2,3-dihydro-1H-isoindol-2-yl]phenyl}cyclobutane-1-carbonitrile], at Cbl-b [1], the DC50 is less than 5 nM and the Dmax fell in the range of 35 to 70%. For the same compound, at Cbl-b [2], the DC50 lay within 5 to 50 nM and the Dmax lay within 35 to 70%.

For `CC1c2nc(N3CCC(O[C@H]4CC[C@H](CN5C[C@H]6C[C@@H]5CN6c5cc6c(c(C(F)(F)F)c5)CN(c5cccc([C@]7(Cc8nncn8C)C[C@@H](C#N)C7)c5)C6=O)CC4)CC3)ccc2C(=O)N1C1CCC(=O)NC1=O` (stereo partly drawn) [Example 181, (1r,3r)-3-[(4-methyl-4H-1,2,4-triazol-3-yl)methyl]-3-(3-{1-oxo-6-[(1R,4R)-5-{[(1r,4r)-4-({1-[6-(2,6-dioxopiperidin-3-yl)-7-methyl-5-oxo-5H,6H,7H-pyrrolo[3,4-b]pyridin-2-yl]piperidin-4-yl}oxy)cyclohexyl]methyl}-2,5-diazabicyclo[2.2.1]heptan-2-yl]-4-(trifluoromethyl)-2,3-dihydro-1H-isoindol-2-yl}phenyl)cyclobutane-1-carbonitrile], at Cbl-b [1], the DC50 was less than 5 nM and the Dmax fell in the range of 35 to 70%. Moreover, on Cbl-b [2], the DC50 is less than 5 nM and the Dmax lay within 35 to 70%.

Turning to `COc1c(N2CCC(F)(CN3CCC4(CC3)CN(c3cc5c(c(C(F)(F)F)c3)CN(c3cccc(C6(Cc7nncn7C)COC6)c3)C5=O)C4)CC2)ccc2c1CN(C1CCC(=O)NC1=O)C2=O` (centres unmarked) [Example 185, 3-{5-[4-fluoro-4-({2-[2-(3-{3-[(4-methyl-4H-1,2,4-triazol-3-yl)methyl]oxetan-3-yl}phenyl)-3-oxo-7-(trifluoromethyl)-2,3-dihydro-1H-isoindol-5-yl]-2,7-diazaspiro[3.5]nonan-7-yl}methyl)piperidin-1-yl]-4-methoxy-1-oxo-2,3-dihydro-1H-isoindol-2-yl}piperidine-2,6-dione], the DC50 on Cbl-b [1] and at Cbl-b [2] was 5 to 50 nM each time. The Dmax at Cbl-b [1] and at Cbl-b [2] was 35 to 70% throughout.

Regarding `COc1c(N2CCC(O[C@H]3CC[C@H](CN4CCC5(CC4)CN(c4cc6c(c(C(F)(F)F)c4)CN(c4cccc([C@]7(Cc8nncn8C)C[C@@H](C#N)C7)c4)C6=O)C5)CC3)CC2)ccc2c1CN(C1CCC(=O)NC1=O)C2=O` (some centres unmarked) [Example 186, (1r,3r)-3-[(4-methyl-4H-1,2,4-triazol-3-yl)methyl]-3-{3-[1-oxo-6-(7-{[(1r,4r)-4-({1-[2-(2,6-dioxopiperidin-3-yl)-4-methoxy-1-oxo-2,3-dihydro-1H-isoindol-5-yl]piperidin-4-yl}oxy)cyclohexyl]methyl}-2,7-diazaspiro[3.5]nonan-2-yl)-4-(trifluoromethyl)-2,3-dihydro-1H-isoindol-2-yl]phenyl}cyclobutane-1-carbonitrile], at Cbl-b [1], the DC50 was less than 5 nM and the Dmax fell in the range of 35 to 70%. At Cbl-b [2], the DC50 lay in the range of 5 to 50 nM and the Dmax was 35 to 70%.
